Measured values reported in article PMC10105652, “Resistance to ceftazidime-avibactam in a KPC-2–producing Klebsiella pneumoniae caused by the extended-spectrum beta-lactamase VEB-25” (European Journal of Clinical Microbiology & Infectious …, 2023).
Read-outs that look alike come from different tables or passages of the source.

Target: T1, VEB-1 (Escherichia coli, UniProt Q7BVU7)
T1 construct: gene blaVEB; natural allele amplified and cloned in pCR-Blunt II-TOPO, E. coli Top10; crude extract
Test: cephalothin hydrolysis, UV […] nm, crude extract
Assay type: biochemical
Conditions: 100 µM cephalothin, 100 mM sodium phosphate pH 7.0, 3 min preincubation

O=C(O)[C@H]1/C(=C/CO)O[C@@H]2CC(=O)N21 [clavulanic acid] gave an IC50 (read-out: CLA) of 0.05 µM.
C[C@]1(Cn2ccnn2)[C@H](C(=O)O)N2C(=O)C[C@H]2S1(=O)=O [tazobactam] was tested, and the IC50 (read-out: CLA) was 0.05 µM.
O=C(NC1CCNCC1)[C@@H]1CC[C@@H]2CN1C(=O)N2OS(=O)(=O)O [relebactam] showed an IC50 (read-out: REL) of 2.4 µM.
Compound NC(=O)[C@@H]1CC[C@@H]2CN1C(=O)N2OS(=O)(=O)O [avibactam] has an IC50 (read-out: AVI) of 0.9 µM.
Compound O=C(O)C[C@@H]1CC[C@H](NC(=O)Cc2cccs2)B(O)O1 [vaborbactam] has an IC50 (read-out: VAB) of 1.1 µM.
